In experiment [1] the test system is orientation hypermotility. Briefly: Sedative action (orientation hypermotility). Type of experiment: in vivo, female NMRI mice. Particulars: mice, oral; clozapine = 1.0. The method, then:
4-8 groups each of 3 female NMRI mice are given the compound orally. The orientation hypermotility induced by a new environment is determined photoelectrically, for a period of 30 minutes, starting 30 minutes after administration of the substances.

The subject of experiment [2] is tonic extension reflex in the gastrocnemius. Briefly: Muscle-relaxing action (tonic extension reflex). Type of experiment: in vivo, rabbits. As to conditions: rabbit, intravenous; for Muscle relaxation R.E.: clozapine = 1.0. The method, then: 2. […] The rabbit is kept in a special apparatus which allows it to flex its paw at the talocalcanean joint in a defined and reproducible manner. The flexing triggers off a tonic extension reflex in the calf muscles. The electrical activity of the muscle during the contraction is recorded, and the individual pulses are counted. The extension (lasting 5 seconds) is repeated at intervals of one minute. […] The numbers of pulses following the administration are compared with the initial values.

For experiment [3], the system named is methamphetamine-induced sniffing movements. As to the kind of experiment: Antimethamphetamine action (methamphetamine antagonism). It counts as in vivo. Particulars: rats, intraperitoneal; clozapine = 1.0. The method, then: 3. Antimethamphetamine action
Methamphetamine.HCl (2.5 mg/kg administered intravenously) regularly causes the following symptoms in rats: motor restlessness, searching and sniffing movements, fur standing on end, and tremor (Janssen et al., Arzneim.-Forsch./Drug Res. 13 (1963), 205; and Randrup et al., Psychopharmacologia 11 (1967), 300). The test substances are administered intraperitoneally 30 minutes before methamphetamine. The substance is considered to have an effect if no sniffing movements are observed for a period of 5 minutes after the injection of methamphetamine. The mean inhibition dose (ED50%) is determined, by means of probit analysis, as the dose which prevents the occurrence of the symptom in half the animals.

Experiment [4] concerns pilocarpine-induced scratching movements. As to the kind of experiment: Anticholinergic action on the central nervous system (pilocarpine). It counts as in vivo. As to conditions: rats, intraperitoneal; clozapine = 1.0. The method, then: 4. Anticholinergic action on the central nervous system
To test the anticholinergic action on the central nervous system, cholinergic stimulation is triggered off by pilocarpine. After rapid intravenous injection of pilocarpine.HCl (50 mg/kg) rats display alternating scratching movements of their rear paws; further symptoms triggered off in the central nervous system are jaw movements and tremors. […] The test substances are administered intraperitoneally 30 minutes before pilocarpine. The substance is considered to have an effect if no scratching is observed for a period of 2 minutes after the injection of pilocarpine. For this symptom, the mean inhibition dose (ED50%) is determined, by means of probit analysis by the method of Finney, as the dose of the test substance which suppresses the scratching in half the animals.

SMILES strings stand for the structures.

`CN1CCN(C2=Nc3cc(Cl)ccc3Nc3ccccc32)CC1` [Clozapine]: in experiment [1], the “Sedation R.E.” value stood at 1.0. Moreover, the ED50 in experiment [2] (Oryctolagus cuniculus, pulses compared with initial values, read-out: Muscle relaxation ED 50%) was found to be 0.046 mg/kg. For the same compound, in experiment [2], the “Muscle relaxation R.E.” value came out at 1.0. In addition, the “Methamphetamine antagonism R.E.” value in experiment [3] turned out to be 1.0. In addition, the “Anticholinergic action on the central nervous system R.E.” value (“Anticholinergic action” for short) in experiment [4] worked out at 1.0.

`CCN1CCN(C2=Nc3cscc3C(=CC#N)c3cscc32)CC1` (mixture of isomers) [Example 6, Cis/trans-9-cyanomethylene-5-(4-ethyl-piperazin-1-yl)dithieno[3,4-b:4',3'-e]azepine]: the “Sedation R.E.” value in experiment [1] is 0.44. For the same compound, the “Muscle relaxation R.E.” value in experiment [2] is on record as 0.21. In addition, in experiment [3], the “Methamphetamine antagonism R.E.” value was found to be 0.88.

On to `CN1CCN(C2=Nc3ccccc3Cc3ccccc32)CC1` [Perlapine], for which the “Muscle relaxation R.E.” value in experiment [2] worked out at 0.42. Also, the “Methamphetamine antagonism R.E.” value in experiment [3] was 1.2. For the same compound, the “Anticholinergic action” value in experiment [4] was 0.22.

`CN1CCN(C2=Nc3cscc3C(=CC#N)c3cscc32)CC1` [Example 1a, 9-cyanomethylene-5-(4-methyl-piperazin-1-yl)-dithieno[3,4-b:4',3'-e]azepine]: the “Sedation R.E.” value in experiment [1] amounted to 0.64. In experiment [2], the “Muscle relaxation R.E.” value worked out at 0.33. Besides, the “Anticholinergic action” value in experiment [4] is given as 1.1.

Consider `CN1CCN(C2=Nc3c(csc3Cl)C(=CC#N)c3cscc32)CC1` (mixture of isomers) [Example 2, Cis/trans-3-chloro-9-cyanomethylene-5-(4-methylpiperazin-1-yl)-dithieno[3,4-b:4',3'-e]azepine], for which the “Sedation R.E.” value in experiment [1] came out at 0.49. Moreover, the “Muscle relaxation R.E.” value in experiment [2] came to 0.56.

The record behind these values is US4362727A, “5-Substituted 9-cyanomethylene-dithieno[3,4-b:4,3-e]-azepines and therapeutic agents which contain these compounds” (priority 1981, dated 1982).
